From article PMC5478473 (Nature chemical biology, 2017)

Target: T1, Tet(50) (unidentified prokaryotic organism, UniProt A0A059WYP6)
T1 sequence (A0A059WYP6 1-388): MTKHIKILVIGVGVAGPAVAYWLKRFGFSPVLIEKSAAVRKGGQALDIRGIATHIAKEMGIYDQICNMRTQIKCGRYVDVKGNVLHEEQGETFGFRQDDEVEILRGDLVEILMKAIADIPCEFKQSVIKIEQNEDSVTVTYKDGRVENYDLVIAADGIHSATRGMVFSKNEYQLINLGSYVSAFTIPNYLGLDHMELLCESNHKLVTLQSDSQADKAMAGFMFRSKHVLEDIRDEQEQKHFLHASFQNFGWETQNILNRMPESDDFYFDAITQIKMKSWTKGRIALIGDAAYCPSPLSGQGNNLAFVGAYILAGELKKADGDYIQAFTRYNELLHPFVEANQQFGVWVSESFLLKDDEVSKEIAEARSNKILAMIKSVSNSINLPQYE

CN(C)[C@@H]1C(O)=C(C(N)=O)C(=O)[C@@]2(O)C(O)=C3C(=O)c4c(O)ccc(Cl)c4[C@@](C)(O)[C@H]3C[C@@H]12 [chlortetracycline]
Km: 6.3 µM
